Patent US20260091026A1, “METHODS OF TREATING INFLAMMATORY DISEASES” (INTERLINE THERAPEUTICS, INC., priority 2023, published 2026)

How the values were obtained:
RIPK2 (KD)/XIAP (BIR2) = molecular target: T1, RIPK2 (KD)/XIAP (BIR2) (Homo sapiens, UniProt O43353); assay: RIPK2-XIAP binding competition PPI assay (TR-FRET); conditions: for Emax: 50 nM of GSK583 = -100% activity, read-out: PPI Amax; for IC50: GST-RIPK2 / His-XIAP (BIR2)-avi, 120 min at 23° C.
T1 construct: made in house; host or cells: baculovirus-infected Sf9 cells
From the text: The ability of selected compounds of Formula (I) to inhibit the binding of an His-XIAP (BIR2)-avi fusion protein to a GST-RIPK2 fusion protein was quantified employing the TR-FRET-based competition assay as described in the following paragraphs.
Recombinant fusion protein of N-terminal Glutathione-S-Transferase (GST) and a fragment of human RIPK2 (amino acids 1-310 of accession number 043353), expressed in baculovirus infected Sf9 cells, purified via glutathione affinity chromatography, was used as GST-RIPK2 fusion protein. Recombinant fusion protein of N-terminal 6xHistidine (His), a fragment of human XIAP (amino acids 152-231 of accession number P98170), and C-terminal avi tag, expressed in baculovirus infected Sf9 cells, purified via Nickel NTA affinity chromatography, was used as the His-XIAP (BIR2)-avi fusion protein.
For the assay, a working solution of 1 nM GST-RIPK2, 25 nM His-XIAP (BIR2)-avi, 6 nM Anti-His-XL665 […] (Revvity Catalogue No. 61HISXLB), and 0.5 nM Anti-GST-Tb(Revvity Catalogue No. 61GSTTLB) in 25 mM Tris-HCl 7.5, 0.5 mM ethylene glycol-bis(2-aminoethylether)-N,N,N′,N′-tetraacetic acid (EGTA), 10 mM magnesium chloride (MgCl2), 2.5 mM dithiothreitol (DTT), 0.01% (w/v) bovine serum albumin (BSA), 0.005% (w/v) Pluronic F-127 (Sigma), 0.5 mM sodium ortho-vanadate, 5 mM-Glycerophosphate disodium salt hydrate (BGP) was prepared. 50 nL of a 100-fold concentrated solution of each test compound in DMSO was dispensed via acoustic dispensing into a white low volume 384-well microtiter plate (Perkin Elmer Catalogue No. 6008280). Subsequently, 5 μL of the assay working solution were added.
The resulting mixture was incubated 120 min at 23° C. Subsequently, the amount of complex formed by the GST-RIPK2, XIAP (BIR2)-avi, Anti-His-XL665, and Anti-GST-Tb was evaluated by measurement of the resonance energy transfer from the Tb-cryptate to the XL665. Therefore, the fluorescence emissions at 520 nm and 665 nm after excitation at 337 nm were measured in a TR-FRET reader, e.g. a Pherastar FS(BMG Labtechnologies, Offenburg, Germany) or an Envision (PerkinElmer). The ratio of the emissions at 665 nm and at 520 nm was taken as the measure of the amount of the complex. The data were normalized (assay reaction without inhibitor=0% activity, 50 nM of GSK583=−100% activity).

[1] = system: THP1-Dual cells, NF-κB pathway (SEAP); assay: THP-1 Dual cell SEAP assay (L18-MDP stimulated); format: cell-based; conditions: Homo sapiens, 10 ng/mL L18-MDP, 20-24 h, SEAP readout, read-out: IFNγ THP1 IC50
Procedure: THP1-Dual™ cells (InvivoGen Cat #thpd-nfis) allow simultaneous assessment of the NF-κB pathway, by monitoring the activity of secreted embryonic alkaline phosphatase (SEAP) as well as the IRF pathway, by assessing the activity of a secreted luciferase (Lucia). Cells were cultured according to manufacturers' recommendations. For the assay, cell concentration was adjusted to 7.14×10^5 cells/mL in assay media (RPMI 1640, 2 mM L-Glutamine, 25 mM HEPES, 10% fetal bovine serum (heat-inactivated for 30 min at 56° C.), Pen-Strep (100 U/mL)) and 35 μL of cell suspension (˜25,000 cells) per well were added to a flat bottom 384-well plate (white opaque). Plate was centrifuged at 300 g for 2 min, compounds were added in serial dilution series according to the plate layout (volumes ˜500 nL-0.0152 nL) and plate was incubated at 37° C. in 5% CO2 for 30 min. Using assay media, a L18-MDP stock solution, that results in a final concentration of 10 ng/mL L18-MDP in each well when adding 15 μL to each well, was prepared. 15 μL of L18-MDP stock solution was added to each well, while 15 μL of assay media was added to the negative control wells. Plates were subsequently incubated at 37° C. in 5% CO2 overnight (20-24 h).
For the SEAP assay: without disturbing the cells at the bottom of the well, 15 μL supernatant was transferred to a clear 384-well flat bottom plate and 35 μL QUANTI-Blue Solution per well was added. Following a 2 h incubation at 37° C., the optical density (OD) was measured at 620-655 nm using a microplate reader (PheraStar FS microplate reader with protocol for OD 620-655 nm).
Values of media-only wells were subtracted and % inhibition for each compound concentration relative to the DMSO/L18-MDP-treated controls was calculated. Inhibition values+/−SD were fitted by non-linear regression using Prism software (GraphPad PRISM Software) to calculate IC50 values.

T1 sequence (O43353 1-310): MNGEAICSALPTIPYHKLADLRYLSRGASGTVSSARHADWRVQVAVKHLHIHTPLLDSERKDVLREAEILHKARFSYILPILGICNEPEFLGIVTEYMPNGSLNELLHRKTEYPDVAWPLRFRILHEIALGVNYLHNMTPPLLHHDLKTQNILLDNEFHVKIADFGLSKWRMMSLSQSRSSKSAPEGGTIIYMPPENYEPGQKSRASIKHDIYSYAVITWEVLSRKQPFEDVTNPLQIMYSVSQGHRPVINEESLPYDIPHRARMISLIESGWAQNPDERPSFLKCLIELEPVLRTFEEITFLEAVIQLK

SMILES | Emax (RIPK2 (KD)/XIAP (BIR2)) [%] | IC50 (RIPK2 (KD)/XIAP (BIR2)) [µM] | IC50 [1] [µM]
COc1cc2ncc(-c3cc(C(=O)NCC4CCCCC4)n(C)n3)n2cc1S(=O)(=O)C(C)(C)C [Example 41, 3-(6-(tert-butylsulfonyl)-7-methoxyimidazo[1,2-a]pyridin-3-yl)-N-(cyclohexylmethyl)-1-methyl-1H-pyrazole-5-carboxamide] | ≥ 80 | 0.1 to 1 | > 2.5
COc1cc2ncc(-c3cc(C(=O)N[C@H](C)c4ccccn4)n(C)n3)n2cc1S(=O)(=O)C(C)(C)C [Example 42, (R)-3-(6-(tert-butylsulfonyl)-7-methoxyimidazo[1,2-a]pyridin-3-yl)-1-methyl-N-(1-(pyridin-2-yl)ethyl)-1H-pyrazole-5-carboxamide] | ≥ 80 | 0.01 to 0.1 | 0.1 to 0.5
COc1cc2ncc(-c3cc(C(=O)NCc4[nH]ncc4C)n(C)n3)n2cc1S(=O)(=O)C(C)(C)C [Example 43, 3-(6-(tert-butylsulfonyl)-7-methoxyimidazo[1,2-a]pyridin-3-yl)-1-methyl-N-((4-methyl-1H-pyrazol-5-yl)methyl)-1H-pyrazole-5-carboxamide] | ≥ 80 | 0.1 to 1 | > 2.5
COc1cc2ncc(-c3cc(C(=O)NCc4cn(C)cn4)n(C)n3)n2cc1S(=O)(=O)C(C)(C)C [Example 44, 3-(6-(tert-butylsulfonyl)-7-methoxyimidazo[1,2-a]pyridin-3-yl)-1-methyl-N-((1-methyl-1H-imidazol-4-yl)methyl)-1H-pyrazole-5-carboxamide] | ≥ 80 | 0.1 to 1 | > 2.5
COc1cc2ncc(-c3cc(C(=O)NCc4cc(C)n[nH]4)n(C)n3)n2cc1S(=O)(=O)C(C)(C)C [Example 45, 3-(6-(tert-butylsulfonyl)-7-methoxyimidazo[1,2-a]pyridin-3-yl)-1-methyl-N-((3-methyl-1H-pyrazol-5-yl)methyl)-1H-pyrazole-5-carboxamide] | ≥ 80 | 0.01 to 0.1 | > 2.5
COc1cc2ncc(-c3cc(C(=O)NCc4ccc(F)cn4)n(C)n3)n2cc1S(=O)(=O)C(C)(C)C [Example 46, 3-(6-(tert-butylsulfonyl)-7-methoxyimidazo[1,2-a]pyridin-3-yl)-N-((5-fluoropyridin-2-yl)methyl)-1-methyl-1H-pyrazole-5-carboxamide] | ≥ 80 | 0.1 to 1 | > 2.5
COc1cc2ncc(-c3cc(C(=O)N[C@H](C)c4ccccn4)n(C)n3)n2cc1C1(F)CCN(C)CC1 [Example 47, (R)-3-(6-(4-fluoro-1-methylpiperidin-4-yl)-7-methoxyimidazo[1,2-a]pyridin-3-yl)-1-methyl-N-(1-(pyridin-2-yl)ethyl)-1H-pyrazole-5-carboxamide] | ≥ 80 | 0.01 to 0.1 | 0.5 to 2.5
COc1cc2ncc(-c3cc(C(=O)N[C@H](C)c4ccc(F)cn4)n(C)n3)n2cc1S(=O)(=O)C(C)(C)C [Example 48, (R)-3-(6-(tert-butylsulfonyl)-7-methoxyimidazo[1,2-a]pyridin-3-yl)-N-(1-(5-fluoropyridin-2-yl)ethyl)-1-methyl-1H-pyrazole-5-carboxamide] | ≥ 80 | 0.01 to 0.1 | 0.5 to 2.5
COc1cc2ncc(-c3cc(C(=O)NCc4ncccc4F)n(C)n3)n2cc1S(=O)(=O)C(C)(C)C [Example 49, 3-(6-(tert-butylsulfonyl)-7-methoxyimidazo[1,2-a]pyridin-3-yl)-N-((3-fluoropyridin-2-yl)methyl)-1-methyl-1H-pyrazole-5-carboxamide] | ≥ 80 | 0.01 to 0.1 | 0.5 to 2.5
COc1cc2ncc(-c3cc(C(=O)N[C@H](C)c4ncccc4F)n(C)n3)n2cc1S(=O)(=O)C(C)(C)C [Example 50, (R)-3-(6-(tert-butylsulfonyl)-7-methoxyimidazo[1,2-a]pyridin-3-yl)-N-(1-(3-fluoropyridin-2-yl)ethyl)-1-methyl-1H-pyrazole-5-carboxamide] | ≥ 80 | 0.01 to 0.1 | 0.1 to 0.5
COc1cc2ncc(-c3cc(C(=O)N[C@@H](C)c4ncccc4F)n(C)n3)n2cc1S(=O)(=O)C(C)(C)C [Example 51, (S)-3-(6-(tert-butylsulfonyl)-7-methoxyimidazo[1,2-a]pyridin-3-yl)-N-(1-(3-fluoropyridin-2-yl)ethyl)-1-methyl-1H-pyrazole-5-carboxamide] | 55 to 80 | > 1 | > 2.5
COc1cc2ncc(-c3cc(C(=O)NCc4cccc(F)n4)n(C)n3)n2cc1S(=O)(=O)C(C)(C)C [Example 52, 3-(6-(tert-butylsulfonyl)-7-methoxyimidazo[1,2-a]pyridin-3-yl)-N-((6-fluoropyridin-2-yl)methyl)-1-methyl-1H-pyrazole-5-carboxamide] | ≥ 80 | 0.1 to 1 | > 2.5
COc1cc2ncc(-c3cc(C(=O)NCc4cc(F)ccn4)n(C)n3)n2cc1S(=O)(=O)C(C)(C)C [Example 53, 3-(6-(tert-butylsulfonyl)-7-methoxyimidazo[1,2-a]pyridin-3-yl)-N-((4-fluoropyridin-2-yl)methyl)-1-methyl-1H-pyrazole-5-carboxamide] | ≥ 80 | 0.1 to 1 | > 2.5
COc1cc2ncc(-c3cc(C(=O)NCc4ncc(F)cc4F)n(C)n3)n2cc1S(=O)(=O)C(C)(C)C [Example 54, 3-(6-(tert-butylsulfonyl)-7-methoxyimidazo[1,2-a]pyridin-3-yl)-N-((3,5-difluoropyridin-2-yl)methyl)-1-methyl-1H-pyrazole-5-carboxamide] | ≥ 80 | 0.1 to 1 | 0.5 to 2.5
COc1cc2ncc(-c3cc(C(=O)NC4(c5ncccn5)CC4)n(C)n3)n2cc1S(=O)(=O)C(C)(C)C [Example 55, 3-(6-(tert-butylsulfonyl)-7-methoxyimidazo[1,2-a]pyridin-3-yl)-1-methyl-N-(1-(pyrimidin-2-yl)cyclopropyl)-1H-pyrazole-5-carboxamide] | 30 to 55 | > 1 | > 2.5
COc1cc2ncc(-c3cc(C(=O)N[C@H](C)c4cn(C)cn4)n(C)n3)n2cc1S(=O)(=O)C(C)(C)C [Example 56, (R)-3-(6-(tert-butylsulfonyl)-7-methoxyimidazo[1,2-a]pyridin-3-yl)-1-methyl-N-(1-(1-methyl-1H-imidazol-4-yl)ethyl)-1H-pyrazole-5-carboxamide] | ≥ 80 | 0.1 to 1 | > 2.5
COc1cc2ncc(-c3cc(C(=O)N[C@@H](C)c4cn(C)cn4)n(C)n3)n2cc1S(=O)(=O)C(C)(C)C [Example 57, (S)-3-(6-(tert-butylsulfonyl)-7-methoxyimidazo[1,2-a]pyridin-3-yl)-1-methyl-N-(1-(1-methyl-1H-imidazol-4-yl)ethyl)-1H-pyrazole-5-carboxamide] | ≥ 80 | > 1 | > 2.5
